Data reported in patent US10314806B2 (SICHUAN JIUZHANG BIOLOGICAL SCIENCE AND TECHNOLOGY CO., LTD., priority 2014, dated 2019).

Columns and labels:
Lewis lung cancer = experiment: Inhibition of mice-transplanted tumor of Lewis lung cancer C57BL/6; format: in vivo; settings: for Inhibitory rate / Tumor weight: 12 times
Procedure: Animal C57BL/6 mice, body weight 13˜20 g, half male and half female.
Cell Lines Lewis cells were mice lung cancer cells, and grew adhering to the wall in RPMI-1640 media containing 10% calf serum, 100 U·ml^−1 penicillin, 100 μg·ml^−1 streptomycin, and were cultured in an incubator at 37° C. under 5% CO2, followed by changing the medium and subculturing every two or three days.
Viable cells were counted by trypan blue staining. Cell suspension was subcutaneously inoculated at the left forelimb armpit of mice at 0.2 ml/animal (containing about 1×10^7 cells), and after tumor grew to 1 cm×1 cm×1 cm, mice were used in experiment. Mice tumors were aseptically stripped, and washed with Hank's solution thrice, to remove blood, fat and necrotic tissues. Tumors were cut to broken pieces of 1 mm×1 mm×1 mm, and washed with Hank's solution twice, to which physiological saline was added at a ratio of (1 g:3 ml), and then ground in a glass homogenizer and filtered by 80-100 mesh sieve to make a suspension of single cell. Viable cells were counted by trypan blue staining.
On the second day after inoculation, a dosage of 0.2 ml·10 g^−1 was administrated to each group by peritoneal injection (ip) for successive 12 times, once a day. When the tumor weight in negative control group was more than 1.0 g (tumor volume being about 0.5 cm^3), the experiment was stopped, and mice were sacrificed by cervical vertebrae removal and weighed. Tumors were stripped to calculate inhibitory rate.

[1] = test system: chemical liver injury (rat alcoholic fatty liver model); experiment: Protective effect on chemical liver injury (rat alcoholic fatty liver model); format: in vivo, rats; settings: for GSH / SOD / AST / MDA / ALT: 30 days; for GSH / SOD / MDA: liver homogenate; for AST / ALT: serum
Procedure: Experimental grouping and dose design: Female SD rats were randomly divided to groups, 10 rats for each group, […], 70 mg·kg^−1, 85 mg·kg^−1, 100 mg·kg^−1, 120 mg·kg^−1, 140 mg·kg^−1, 160 mg·kg^−1, 180 mg·kg^−1, […], together with a negative control group and 50% ethanol model control group. Liver injury model was induced by ethanol (analytical pure).
Determination of ALT, AST, TG in serum of rats; Determination of SOD, MDA, reduced glutathione (GSH) in liver homogenate.
Statistics of experimental data: Statistical analysis of experimental data was performed using software package of SPSS 19.0 for windows.

## O=C(/C=C/c1ccc(O)c(O)c1)O[C@@H]1C[C@](O)(C(=O)O)C[C@@H](O)[C@H]1O [Chlorogenic acid of the present invention]
Lewis lung cancer; 1 mg·kg^−1 ip once a day
  Inhibitory rate: 2.6%
  Tumor weight: 1.445 ± 0.772 g
Lewis lung cancer; 5 mg·kg^−1 ip once a day
  Inhibitory rate: 14.2%
  Tumor weight: 1.273 ± 0.258 g
Lewis lung cancer; 10 mg·kg^−1 ip once a day
  Inhibitory rate: 56.5%
  Tumor weight: 0.646 ± 0.230 g
Lewis lung cancer; 20 mg·kg^−1 ip once a day
  Inhibitory rate: 74.6%
Lewis lung cancer; 30 mg·kg^−1 ip once a day
  Inhibitory rate: 78.3%
  Tumor weight: 0.322 ± 0.111 g
Lewis lung cancer; 40 mg·kg^−1 ip once a day
  Inhibitory rate: 76.4%
  Tumor weight: 0.350 ± 0.078 g
Lewis lung cancer; 50 mg·kg^−1 ip once a day
  Inhibitory rate: 65.6%
  Tumor weight: 0.510 ± 0.241 g
Lewis lung cancer; 60 mg·kg^−1 ip once a day
  Inhibitory rate: 59.2%
  Tumor weight: 0.605 ± 0.363 g
Lewis lung cancer; 70 mg·kg^−1 ip once a day
  Inhibitory rate: 32.3%
  Tumor weight: 1.005 ± 0.657 g
Lewis lung cancer; 80 mg·kg^−1 ip once a day
  Inhibitory rate: 24.8%
Lewis lung cancer; 90 mg·kg^−1 ip once a day
  Inhibitory rate: 17.6%
  Tumor weight: 1.223 ± 0.314 g
Lewis lung cancer; 100 mg·kg^−1 ip once a day
  Inhibitory rate: 11.3%
  Tumor weight: 1.316 ± 0.352 g
Lewis lung cancer; compared with the negative control group, obvious in the dosage groups of 10 mg/kg-60 mg/kg
  inhibitory action on mice-transplanted tumor of Lewis lung cancer C57BL/6: obviously inhibitory action
[1]; 10 mg·kg^−1 intragastric
  GSH: 13.02 ± 1.23 mg/g
  SOD: 28.12 ± 3.25 nmol/mg
  AST: 189.54 ± 4.87 U/L
[1]; 20 mg·kg^−1 intragastric
  GSH: 18.98 ± 2.14 mg/g
  MDA: 5.15 ± 0.21 U/mg
  SOD: 36.45 ± 2.47 nmol/mg
  AST: 178.54 ± 6.15 U/L
[1]; 35 mg·kg^−1 intragastric
  GSH: 19.21 ± 1.45 mg/g
  MDA: 5.14 ± 0.47 U/mg
  SOD: 37.27 ± 3.25 nmol/mg
  AST: 168.54 ± 4.31 U/L
[1]; 50 mg·kg^−1 intragastric
  GSH: 22.14 ± 2.41 mg/g
  MDA: 4.12 ± 0.65 U/mg
  SOD: 38.24 ± 2.75 nmol/mg
  ALT: 40.12 ± 3.15 U/L
  AST: 139.21 ± 5.14 U/L
[1]; 70 mg·kg^−1 intragastric
  GSH: 22.87 ± 2.47 mg/g
  MDA: 4.56 ± 0.78 U/mg
  SOD: 38.75 ± 3.21 nmol/mg
  ALT: 38.48 ± 2.47 U/L
  AST: 127.54 ± 6.54 U/L
[1]; 85 mg·kg^−1 intragastric
  GSH: 23.01 ± 1.58 mg/g
  MDA: 4.32 ± 0.46 U/mg
  SOD: 40.14 ± 6.12 nmol/mg
  ALT: 35.47 ± 2.46 U/L
  AST: 119.25 ± 6.89 U/L
[1]; 100 mg·kg^−1 intragastric
  GSH: 23.48 ± 1.78 mg/g
  MDA: 4.08 ± 0.85 U/mg
  SOD: 41.56 ± 4.32 nmol/mg
  ALT: 33.14 ± 1.89 U/L
  AST: 126.89 ± 4.21 U/L
[1]; 120 mg·kg^−1 intragastric
  GSH: 23.98 ± 2.14 mg/g
  MDA: 3.89 ± 0.42 U/mg
  SOD: 42.87 ± 3.15 nmol/mg
  ALT: 39.85 ± 2.41 U/L
  AST: 138.84 ± 5.15 U/L
[1]; 140 mg·kg^−1 intragastric
  GSH: 24.35 ± 1.58 mg/g
  MDA: 3.57 ± 0.64 U/mg
  SOD: 44.78 ± 2.31 nmol/mg
  ALT: 40.08 ± 2.78 U/L
  AST: 140.54 ± 6.12 U/L
[1]; 160 mg·kg^−1 intragastric
  GSH: 20.01 ± 1.47 mg/g
  MDA: 4.05 ± 0.25 U/mg
  SOD: 38.56 ± 2.45 nmol/mg
  AST: 157.98 ± 5.27 U/L
[1]; 180 mg·kg^−1 intragastric
  GSH: 19.87 ± 2.84 mg/g
  MDA: 4.98 ± 0.87 U/mg
  SOD: 37.25 ± 4.27 nmol/mg
  AST: 168.12 ± 4.89 U/L
[1]; 200 mg·kg^−1 intragastric
  GSH: 19.01 ± 1.58 mg/g
  MDA: 5.45 ± 0.24 U/mg
  SOD: 36.25 ± 2.87 nmol/mg
  AST: 177.56 ± 4.25 U/L
[1]; 220 mg·kg^−1 intragastric
  GSH: 17.24 ± 1.89 mg/g
  SOD: 30.12 ± 2.14 nmol/mg
  AST: 189.98 ± 5.67 U/L
[1]; dosage of 50 mg/kg-140 mg/kg had the most obvious effect
  inhibitory action on chemical liver injury: obviously inhibitory action

## O=C(/C=C/c1ccc(O)c(O)c1)O[C@@H]1C[C@](O)(C(=O)O)C[C@@H](O)[C@H]1O [Commercially available chlorogenic acid, chlorogenic acid, reference compound]
Lewis lung cancer; 1 mg·kg^−1 ip once a day
  Inhibitory rate: 3.2%
  Tumor weight: 1.437 ± 0.466 g
Lewis lung cancer; 5 mg·kg^−1 ip once a day
  Inhibitory rate: 6.6%
  Tumor weight: 1.386 ± 0.398 g
Lewis lung cancer; 10 mg·kg^−1 ip once a day
  Inhibitory rate: 23.5%
Lewis lung cancer; 20 mg·kg^−1 ip once a day
  Inhibitory rate: 32.9%
  Tumor weight: 0.996 ± 0.428 g
Lewis lung cancer; 30 mg·kg^−1 ip once a day
  Inhibitory rate: 32.5%
  Tumor weight: 1.001 ± 0.204 g
Lewis lung cancer; 40 mg·kg^−1 ip once a day
  Inhibitory rate: 31.8%
  Tumor weight: 1.012 ± 0.369 g
Lewis lung cancer; 50 mg·kg^−1 ip once a day
  Inhibitory rate: 25.3%
Lewis lung cancer; 60 mg·kg^−1 ip once a day
  Inhibitory rate: 21.6%
Lewis lung cancer; 70 mg·kg^−1 ip once a day
  Inhibitory rate: 17.8%
  Tumor weight: 1.220 ± 0.237 g
Lewis lung cancer; 80 mg·kg^−1 ip once a day
  Inhibitory rate: 14.2%
  Tumor weight: 1.273 ± 0.511 g
Lewis lung cancer; 90 mg·kg^−1 ip once a day
  Inhibitory rate: 12.4%
  Tumor weight: 1.300 ± 0.462 g
Lewis lung cancer; 100 mg·kg^−1 ip once a day
  Inhibitory rate: 8.6%
  Tumor weight: 1.356 ± 0.338 g
[1]; 10 mg·kg^−1 intragastric
  GSH: 12.57 ± 3.84 mg/g
  SOD: 26.15 ± 2.45 nmol/mg
  ALT: 58.67 ± 2.89 U/L
  AST: 194.12 ± 6.32 U/L
[1]; 20 mg·kg^−1 intragastric
  GSH: 13.62 ± 4.87 mg/g
  SOD: 27.24 ± 2.78 nmol/mg
  ALT: 57.41 ± 3.15 U/L
  AST: 193.89 ± 3.84 U/L
[1]; 35 mg·kg^−1 intragastric
  GSH: 14.83 ± 5.47 mg/g
  SOD: 28.05 ± 1.45 nmol/mg
  ALT: 56.84 ± 2.87 U/L
  AST: 192.12 ± 5.12 U/L
[1]; 50 mg·kg^−1 intragastric
  GSH: 15.57 ± 3.16 mg/g
  SOD: 29.14 ± 3.78 nmol/mg
  ALT: 56.88 ± 2.64 U/L
  AST: 190.56 ± 4.28 U/L
[1]; 70 mg·kg^−1 intragastric
  GSH: 16.88 ± 2.78 mg/g
  SOD: 30.55 ± 2.05 nmol/mg
  ALT: 55.14 ± 1.65 U/L
  AST: 190.88 ± 3.65 U/L
[1]; 85 mg·kg^−1 intragastric
  GSH: 17.37 ± 3.87 mg/g
  SOD: 31.04 ± 2.58 nmol/mg
  ALT: 53.24 ± 6.11 U/L
  AST: 198.87 ± 2.78 U/L
[1]; 100 mg·kg^−1 intragastric
  GSH: 18.00 ± 3.21 mg/g
  SOD: 32.54 ± 3.47 nmol/mg
  AST: 187.12 ± 4.57 U/L
[1]; 120 mg·kg^−1 intragastric
  GSH: 18.24 ± 6.48 mg/g
  SOD: 33.65 ± 5.01 nmol/mg
  AST: 184.25 ± 3.49 U/L
[1]; 140 mg·kg^−1 intragastric
  GSH: 18.65 ± 3.48 mg/g
  SOD: 33.29 ± 2.68 nmol/mg
  AST: 182.36 ± 3.87 U/L
[1]; 160 mg·kg^−1 intragastric
  GSH: 17.55 ± 4.87 mg/g
  SOD: 33.12 ± 1.75 nmol/mg
  AST: 180.15 ± 6.48 U/L
[1]; 180 mg·kg^−1 intragastric
  GSH: 17.98 ± 5.94 mg/g
  SOD: 32.87 ± 2.16 nmol/mg
  AST: 179.54 ± 4.16 U/L
[1]; 200 mg·kg^−1 intragastric
  GSH: 16.49 ± 4.21 mg/g
  SOD: 31.11 ± 2.54 nmol/mg
  AST: 185.48 ± 3.94 U/L
[1]; 220 mg·kg^−1 intragastric
  GSH: 15.31 ± 3.46 mg/g
  SOD: 28.15 ± 2.04 nmol/mg
  AST: 188.34 ± 5.87 U/L
